Laboratory results from patent EP4582413A1, “ARYLTETRAHYDROPYRIDINE COMPOUND AND PEST CONTROL AGENT” (priority 2022, dated 2024).

Key:
Assay type in all cases: in vivo
Trichostrongylus axei = test: Effect test for Trichostrongylus axei; parameters: concentration or dose not given beside the values; conditions: test chemical solution B added to eggs in 96-well plate, unhatched eggs and inactive larvae counted 4 days after addition, 25°C, relative to untreated plot
Method: Agar medium with 1% potato dextrose was aliquoted into 60-µl portions in a 96-well plate, and 30 µl of sterilized water containing Trichostrongylus axei eggs and a freeze-dried Escherichia coli OP50 strain (five eggs, 10 µg/10 µl Escherichia coli) was added to each well. From above, 10 µl of test chemical solution B of the presently invented compound was added to each well, and the plate was left to stand under dark conditions at 25°C.

[1] = tested on: diamondback moths (Plutella xylostella); test: Insecticidal test for diamondback moths; conditions: Plutella xylostella, 144 h; 500 ppm chemical solution, leaves soaked, third-instar larvae, six days, 25°C; read-out: death rate
Method: A 10% by mass emulsion of the presently invented compound prepared according to the above formulation example for an emulsion was diluted with water containing a spreader to prepare a chemical solution having a concentration of 500 ppm. Chinese olive leaves were soaked in the chemical solution for approximately 10 seconds. After the completion of the soaking operation, the Chinese olive leaves treated with the chemical solution were air-dried, and then put in dishes. Into each dish, five third-instar diamondback moths (Plutella xylostella) larvae were released, and the dishes were capped and accommodated in a thermostatic room at 25°C. […] The test was carried out in duplicate.

[2] = tested on: western flower thrips (Frankliniella occidentalis); test: Insecticidal activity against western flower thrips; conditions: Frankliniella occidentalis, 48 h; 500 ppm chemical solution sprinkled (2.5 mg/cm^2), larvae on common bean leaf, after 2 days; read-out: death rate
Method: Wet filter paper was laid on each styrol cup having an inner diameter of 7 cm, and a common bean leaf cut into a 3 cm square was placed thereon, and inoculated with 20 western flower thrips (Frankliniella occidentalis) larvae. A 10% by mass emulsion of the presently invented compound prepared according to the above formulation example for an emulsion was diluted with water containing a spreader to prepare a chemical solution having a concentration of 500 ppm. For each styrol cup, 2.5 ml of the chemical solution prepared was sprinkled (2.5 mg/cm^2) with a rotary tower sprinkler. […] The test was carried out in duplicate.

[3] = tested on: cat fleas (Ctenocephalides felis); test: whole plant or invertebrate; conditions: 72 h, read-out: death rate
Method: In 1 ml of acetone, 1 mg of the presently invented compound was dissolved to prepare a chemical solution having a concentration of 1000 ppm. The bottom surface and side surface of each glass container having an inner wall surface area of 25 cm^2 were coated with 250 µl of the chemical solution, and acetone was then volatilized to form a thin film of the compound on the inner wall of the glass container.
Into each of the treated glass containers, five cat fleas (Ctenocephalides felis) imagoes (mixed-sex) were released, and the glass containers were capped and accommodated in a thermostatic room at 25°C. Three days after the release, the number of dead flea individuals were examined, and the death rate was calculated from the same calculation formula as in Test Example 1.

[4] = tested on: brown rice planthoppers (Nilaparvata lugens); test: Insecticidal test for brown rice planthoppers; conditions: Nilaparvata lugens, 144 h; 500 ppm chemical solution, rice leaf sheaths soaked, third-instar larvae, six days, 25°C; read-out: death rate
Method: A 10% by mass emulsion of the presently invented compound prepared according to the above formulation example for an emulsion was diluted with water containing a spreader to prepare a chemical solution having a concentration of 500 ppm. Rice leaf sheaths were soaked in the chemical solution for approximately 10 seconds. After the completion of the soaking operation, the rice leaf sheaths treated with the chemical solution were air-dried, and then put in test tubes. Into each test tube, five third-instar brown rice planthoppers (Nilaparvata lugens) larvae were released, and the test tubes were capped with sponge and accommodated in a thermostatic room at 25°C. Six days after the accommodation, the number of dead brown rice planthoppers individuals in the test tubes were examined, and the death rate was calculated from a calculation formula shown below. The test was carried out in duplicate. [formula]

Compound | efficacy (%) (Trichostrongylus axei) | mortality at 500 µg/mL [1] [%] | mortality at 500 µg/mL [2] [%] | mortality at 10 µg/cm2 [3] [%] | mortality at 500 µg/mL [4] [%]
O=C(Nc1ccc(SC(F)(F)F)cc1)C1=C(O)CC(c2cnc(Cl)c(-c3ccc(F)nc3)c2)NC1=O (stereo not shown) [2-038] | ≥ 50 | – | – | – | –
O=C(Nc1ccc(C(F)(F)F)cn1)C1=C(O)CC(c2cnc(Cl)c(-c3cncc(F)c3)c2)NC1=O (stereo not shown) [2-056] | ≥ 50 | – | – | – | –
N#Cc1ccc(NC(=O)C2=C(O)CC(c3cnc(Cl)c(-c4ccc(F)nc4)c3)NC2=O)nc1 (stereo not shown) [2-088] | ≥ 50 | – | – | – | –
O=C(Nc1ncc(F)cc1Cl)C1=C(O)CC(c2cnc(Cl)c(-c3ccc(F)nc3)c2)NC1=O (stereo not shown) [2-103] | ≥ 50 | – | – | – | –
O=C(Nc1ccc(F)cn1)C1=C(O)CC(c2cnc(Cl)c(-c3ccnc(F)c3)c2)NC1=O (stereo not shown) [2-115] | ≥ 50 | – | – | – | –
Cc1cnc(NC(=O)C2=C(O)CC(c3cnc(Cl)c(-c4ccc(F)nc4)c3)NC2=O)nc1 (stereo not shown) [2-120] | ≥ 50 | – | – | – | –
O=C(Nc1cnc(Cl)c(Cl)c1)C1=C(O)CC(c2cnc(Cl)c(-c3ccc(F)nc3)c2)NC1=O (stereo not shown) [2-126] | ≥ 50 | – | – | – | –
O=C(Nc1ccc(Cl)nc1Cl)C1=C(O)CC(c2cnc(Cl)c(-c3ccc(F)nc3)c2)NC1=O (stereo not shown) [2-128] | ≥ 50 | – | – | – | –
Cc1cc(NC(=O)C2=C(O)CC(c3cnc(Cl)c(-c4ccc(F)nc4)c3)NC2=O)cnc1Cl (stereo not shown) [2-129] | ≥ 50 | – | – | – | –
Cc1cc(Cl)cnc1NC(=O)C1=C(O)CC(c2cnc(Cl)c(-c3ccc(F)nc3)c2)NC1=O (stereo not shown) [2-130] | ≥ 50 | – | – | – | –
O=C(Nc1ncc(Cl)nc1Cl)C1=C(O)CC(c2cnc(Cl)c(-c3ccc(F)nc3)c2)NC1=O (stereo not shown) [2-131] | ≥ 50 | – | – | – | –
O=C(Nc1ccc(Br)c(F)n1)C1=C(O)CC(c2cnc(Cl)c(-c3ccc(F)nc3)c2)NC1=O (stereo not shown) [2-132] | ≥ 50 | – | – | – | –
O=C(Nc1cnccn1)C1=C(O)CC(c2cnc(Cl)c(-c3ccc(F)nc3)c2)NC1=O (stereo not shown) [2-133] | ≥ 50 | – | – | – | –
Cc1ccnc(NC(=O)C2=C(O)CC(c3cnc(Cl)c(-c4ccc(F)nc4)c3)NC2=O)c1 (stereo not shown) [2-153] | ≥ 50 | – | – | – | –
O=C(Nc1ccc(F)cn1)C1=C(O)CC(c2cnc(C(F)(F)F)c(-c3ccc(F)nc3)c2)NC1=O (stereo not shown) [2-167] | ≥ 50 | – | – | – | –
O=C(Nc1ccc(Cl)cn1)C1=C(O)CC(c2cnc(C(F)(F)F)c(-c3ccc(F)nc3)c2)NC1=O (stereo not shown) [2-169] | ≥ 50 | – | – | – | –
O=C(Nc1ccc(Cl)nc1)C1=C(O)CC(c2cnc(C(F)(F)F)c(-c3ccc(F)nc3)c2)NC1=O (stereo not shown) [2-170] | ≥ 50 | – | – | – | –
Cc1ccc(NC(=O)C2=C(O)CC(c3cnc(C(F)(F)F)c(-c4ccc(F)nc4)c3)NC2=O)nc1 (stereo not shown) [2-171] | ≥ 50 | – | – | – | –
Cn1ccc(NC(=O)C2=C(O)CC(c3cnc(C(F)(F)F)c(-c4ccc(F)nc4)c3)NC2=O)n1 (stereo not shown) [2-172] | ≥ 50 | – | – | – | –
O=C(Nc1ccc(Br)cn1)C1=C(O)CC(c2cnc(C(F)(F)F)c(-c3ccc(F)nc3)c2)NC1=O (stereo not shown) [2-177] | ≥ 50 | – | – | – | –
O=C(Nc1ccc(C(F)(F)F)cn1)C1=C(O)CC(c2cnc(C(F)(F)F)c(-c3ccc(F)nc3)c2)NC1=O (stereo not shown) [2-179] | ≥ 50 | – | – | – | –
O=C(Nc1ncc(Cl)cc1F)C1=C(O)CC(c2cnc(C(F)(F)F)c(-c3ccc(F)nc3)c2)NC1=O (stereo not shown) [2-181] | ≥ 50 | – | – | – | –

Compound | efficacy (%) (Trichostrongylus axei) | mortality at 500 µg/mL [1] [%] | mortality at 500 µg/mL [2] [%] | mortality at 10 µg/cm2 [3] [%] | mortality at 500 µg/mL [4] [%]
O=C(Nc1cc(F)ccn1)C1=C(O)CC(c2nc(-c3cc(F)ccc3F)no2)NC1=O (stereo not shown) [3-050] | – | ≥ 90 | ≥ 90 | ≥ 50 | ≥ 90
O=C(Nc1cc(F)ccn1)C1=C(O)CC(c2nc(-c3cccc(F)c3)no2)NC1=O (stereo not shown) [3-057] | – | ≥ 90 | ≥ 90 | ≥ 50 | ≥ 90
O=C(Nc1ccccn1)C1=C(O)CC(c2nc(-c3ccnc(F)c3)no2)NC1=O (stereo not shown) [3-065] | – | ≥ 90 | ≥ 90 | ≥ 50 | ≥ 90
N#Cc1ccc(NC(=O)C2=C(O)CC(c3nc(-c4ccnc(F)c4)no3)NC2=O)cc1 (stereo not shown) [3-071] | – | ≥ 90 | ≥ 90 | ≥ 50 | ≥ 90
O=C(Nc1cc(F)ccn1)C1=C(O)CC(c2nc(-c3ccc(F)c(Br)c3)no2)NC1=O (stereo not shown) [3-146] | – | ≥ 90 | ≥ 90 | ≥ 50 | ≥ 90
O=C(Nc1cc(Cl)ccn1)C1=C(O)CC(c2nc(-c3ccc(F)cc3F)no2)NC1=O (stereo not shown) [3-155] | – | ≥ 90 | ≥ 90 | ≥ 50 | ≥ 90
O=C(Nc1ccc(F)cc1F)C1=C(O)CC(c2nc(-c3ccc(F)cc3F)no2)NC1=O (stereo not shown) [3-157] | – | ≥ 90 | ≥ 90 | ≥ 50 | ≥ 90
O=C(Nc1ccc(F)c(F)c1)C1=C(O)CC(c2nc(-c3ccc(F)cc3F)no2)NC1=O (stereo not shown) [3-161] | – | ≥ 90 | ≥ 90 | ≥ 50 | ≥ 90
Cc1ccc(NC(=O)C2=C(O)CC(c3nc(-c4ccc(F)cc4F)no3)NC2=O)nc1 (stereo not shown) [3-175] | – | ≥ 90 | ≥ 90 | ≥ 50 | ≥ 90
Cc1ccnc(NC(=O)C2=C(O)CC(c3nc(-c4ccncc4C)no3)NC2=O)c1 (stereo not shown) [3-176] | – | ≥ 90 | ≥ 90 | ≥ 50 | ≥ 90
O=C(Nc1cccnc1)C1=C(O)CC(c2nc(-c3ccc(F)cc3F)no2)NC1=O (stereo not shown) [3-177] | – | ≥ 90 | ≥ 90 | ≥ 50 | ≥ 90
O=C(Nc1ccccn1)C1=C(O)CC(c2nc(-c3ccc(F)cc3)no2)NC1=O (stereo not shown) [3-184] | – | ≥ 90 | ≥ 90 | ≥ 50 | ≥ 90
O=C(Nc1ccccn1)C1=C(O)CC(c2nc(-c3cccc(F)c3)no2)NC1=O (stereo not shown) [3-185] | – | ≥ 90 | ≥ 90 | ≥ 50 | ≥ 90
O=C(Nc1cc(F)ccn1)C1=C(O)CC(c2nc(-c3ccns3)no2)NC1=O (stereo not shown) [3-227] | – | ≥ 90 | ≥ 90 | ≥ 50 | ≥ 90
O=C(Nc1ncccc1Br)C1=C(O)CC(c2nc(-c3cnccc3F)no2)NC1=O (stereo not shown) [3-233] | – | ≥ 90 | ≥ 90 | ≥ 50 | ≥ 90
O=C(Nc1cc(F)ccn1)C1=C(O)CC(c2nc(-c3cscc3Cl)no2)NC1=O (stereo not shown) [3-234] | – | ≥ 90 | ≥ 90 | ≥ 50 | ≥ 90
O=C(Nc1cc(F)ccn1)C1=C(O)CC(c2nc(-c3ccsc3Cl)no2)NC1=O (stereo not shown) [3-235] | – | ≥ 90 | ≥ 90 | ≥ 50 | ≥ 90
O=C(Nc1cccc(F)n1)C1=C(O)CC(c2nc(-c3ccncc3F)no2)NC1=O (stereo not shown) [3-238] | – | ≥ 90 | ≥ 90 | ≥ 50 | ≥ 90
O=C(Nc1cccc(F)n1)C1=C(O)CC(c2nc(-c3ccncc3Cl)no2)NC1=O (stereo not shown) [3-239] | – | ≥ 90 | ≥ 90 | ≥ 50 | ≥ 90
O=C(Nc1ccccn1)C1=C(O)CC(c2nc(-c3snc(Cl)c3Cl)no2)NC1=O (stereo not shown) [3-263] | – | ≥ 90 | ≥ 90 | ≥ 50 | ≥ 90
O=C(Nc1ccc(F)cn1)C1=C(O)CC(c2nc(-c3cnc(C(F)(F)F)s3)no2)NC1=O (stereo not shown) [3-264] | – | ≥ 90 | ≥ 90 | ≥ 50 | ≥ 90
